According to patent US4122034A, “Antimicrobial compositions” (Schering Corporation, priority 1975, dated 1978):
Converted amounts (≈) assume the structure as drawn.

Columns and labels:
Enterococcus = assay: In vitro antibacterial activity, dilution in Mueller Hinton Agar (Table I); type: cell-based
Experimental: (§1) All the tests were carried out and (when necessary) scored under standard conditions. "MIC" means "minimum inhibitory concentration."
(§2) In vitro Antibacterial Activity of 2-aminoalkyl-3-phenyl-
(§3) indoles of the formula I. Dilution in Mueller Hinton Agar pH 7.4

Escherichia coli = assay: as above; type: cell-based
Experimental: as §1, §2, §3

Klebsiella = assay: as above; type: cell-based
Experimental: as §1, §2, §3

Proteus mirabilis = assay: as above; type: cell-based; conditions: Mueller Hinton Agar pH 7.4
Experimental: as §1, §2, §3

Proteus morganii = assay: as above; type: cell-based; conditions: Morganella morganii; strain Valz; Mueller Hinton Agar pH 7.4
Experimental: as §1, §2, §3

Proteus rettgeri = assay: as above; type: cell-based; conditions: Providencia rettgeri; 'Proteus rettgeri mirabilis' [sic]; Mueller Hinton Agar pH 7.4
Experimental: as §1, §2, §3

Proteus vulgaris = assay: as above; type: cell-based; conditions: strain Napol, Mueller Hinton Agar pH 7.4
Experimental: as §1, §2, §3

Pseudomonas acruginosa = assay: as above; type: cell-based
Experimental: as §1, §2, §3

Salmonella = assay: as above; type: cell-based
Experimental: as §1, §2, §3

Staphylococcus aureus = assay: as above; type: cell-based; conditions: Mueller Hinton Agar pH 7.4
Experimental: as §1, §2, §3

Streptococcus pyogenes = assay: as above; type: cell-based
Experimental: as §1, §2, §3

Candida albicans = assay: In vitro Anti-Candida activity, dilutions in Sabouraud's Dextrose Agar (Table III); type: cell-based; conditions: 48 h
Experimental: as §1
In vitro Anti-Candida Activity of 2-aminoalkyl-3-phenyl-
indoles of the formula I. Dilutions in Sabouraud's Dextrose
MIC (mcg/ml) after 48 hours

Epidermophyton floccosum = assay: In vitro antifungal activity, dilutions in Sabouraud's Dextrose Broth (Table IV); type: cell-based; conditions: after 96 hours
Experimental: as §1
(§4) In vitro Antifungal Activity of 2-amioalkyl-3-phenylindoles
(§5) of the formula I against Dermetophytes and Aspergillus.
(§6) Dilutions in Sabouraud's Dextrose Broth.

Microsporum distortum = assay: as above; type: cell-based; conditions: after 96 hours
Experimental: as §1, §4, §5, §6

Microsporum nanum = assay: as above; type: cell-based; conditions: Nannizzia nana; after 96 hours
Experimental: as §1, §4, §5, §6

Trichophyton ascoides = assay: as above; type: cell-based; conditions: after 96 hours
Experimental: as §1, §4, §5, §6

Trichophyton discoides = assay: as above; type: cell-based; conditions: after 96 hours
Experimental: as §1, §4, §5, §6

Trichophyton ferrugineum = assay: as above; type: cell-based; conditions: Microsporum ferrugineum; after 96 hours
Experimental: as §1, §4, §5, §6

Trichophyton gallinae = assay: as above; type: cell-based; conditions: after 96 hours
Experimental: as §1, §4, §5, §6

[1] = tested on: Trichophyton mentagrophytes; assay: as above; type: cell-based; conditions: 96 h
Experimental: as §1, §4, §5, §6

Trichophyton rubrum = assay: as above; type: cell-based; conditions: 96 h
Experimental: as §1, §4, §5, §6

Trichophyton soudenense = assay: as above; type: cell-based; conditions: after 96 hours
Experimental: as §1, §4, §5, §6

Trichophyton tonsurans = assay: as above; type: cell-based; conditions: after 96 hours
Experimental: as §1, §4, §5, §6

Tricoderm sp. = assay: as above; type: cell-based; conditions: after 96 hours
Experimental: as §1, §4, §5, §6

T. mentagrophytes = assay: Effect against topical T. mentagrophytes infections in guinea pigs (Table VI); type: in vivo; parameters: Average Sum of lesion scores, Days 1-5 / Average Sum of lesion scores, Days 1-10: scale not given here; conditions: for Average Sum of lesion scores, Days 1-5: untreated controls 14.8; for Average Sum of lesion scores, Days 1-10: untreated controls 38.2
Experimental: as §1
Effect of some 2-aminoalkyl-3-phenylindoles of the formula II
against topical T. mentagrophytes infections in guinea pigs.

Question: What does the source list for `NCc1[nH]c2ccc(Cl)cc2c1-c1c(F)cccc1F` [B, 2-aminomethyl-5-chloro-3-(2,6-difluorophenyl)indole]?
Answer: MIC (Enterococcus; pH 7.4, strain 373, Mueller Hinton Agar pH 7.4): 7.5 µg/mL (≈ 25.6 µM); MIC (Enterococcus; pH 7.4, strain 0928/72, Mueller Hinton Agar pH 7.4): 17.5 µg/mL (≈ 59.8 µM); MIC (Escherichia coli; pH 7.4, strain 777, Mueller Hinton Agar pH 7.4): 7.5 µg/mL (≈ 25.6 µM); MIC (Escherichia coli; pH 7.4, strain 1574-1, Mueller Hinton Agar pH 7.4): 7.5 µg/mL (≈ 25.6 µM); MIC (Escherichia coli; pH 7.4, strain 4195, Mueller Hinton Agar pH 7.4): 7.5 µg/mL (≈ 25.6 µM); MIC (Escherichia coli; pH 7.4, strain 10536, Mueller Hinton Agar pH 7.4): 7.5 µg/mL (≈ 25.6 µM); MIC (Escherichia coli; pH 7.4, strain JR66, Mueller Hinton Agar pH 7.4): 7.5 µg/mL (≈ 25.6 µM); MIC (Klebsiella; pH 7.4, strain 121, Mueller Hinton Agar pH 7.4): 17.5 µg/mL (≈ 59.8 µM); MIC (Klebsiella; pH 7.4, strain 3020, Mueller Hinton Agar pH 7.4): 7.5 µg/mL (≈ 25.6 µM); MIC (Klebsiella; pH 7.4, strain AD17, Mueller Hinton Agar pH 7.4): 17.5 µg/mL (≈ 59.8 µM); MIC (Klebsiella; pH 7.4, strain AD22, Mueller Hinton Agar pH 7.4): 7.5 µg/mL (≈ 25.6 µM); MIC (Klebsiella; pH 7.4, strain G3694, Mueller Hinton Agar pH 7.4): 7.5 µg/mL (≈ 25.6 µM); MIC (Proteus mirabilis; pH 7.4, strain Hard): 17.5 µg/mL (≈ 59.8 µM); MIC (Proteus mirabilis; pH 7.4, strain Peras): 37.5 µg/mL (≈ 128 µM); MIC (Proteus morganii): 17.5 µg/mL (≈ 59.8 µM); MIC (Proteus rettgeri): 17.5 µg/mL (≈ 59.8 µM); MIC (Proteus vulgaris): 17.5 µg/mL (≈ 59.8 µM); MIC (Pseudomonas acruginosa; pH 7.4, strain 130, Mueller Hinton Agar pH 7.4): 17.5 µg/mL (≈ 59.8 µM); MIC (Pseudomonas acruginosa; pH 7.4, strain 138, Mueller Hinton Agar pH 7.4): 17.5 µg/mL (≈ 59.8 µM); MIC (Pseudomonas acruginosa; pH 7.4, strain 762, Mueller Hinton Agar pH 7.4): 17.5 µg/mL (≈ 59.8 µM); MIC (Pseudomonas acruginosa; pH 7.4, strain 8709, Mueller Hinton Agar pH 7.4): 17.5 µg/mL (≈ 59.8 µM); MIC (Pseudomonas acruginosa; pH 7.4, strain Trav. 1, Mueller Hinton Agar pH 7.4): 17.5 µg/mL (≈ 59.8 µM); MIC (Salmonella; TYPHI, pH 7.4, B typhi, Mueller Hinton Agar pH 7.4): 7.5 µg/mL (≈ 25.6 µM); MIC (Salmonella; pH 7.4, C1 Oao, Mueller Hinton Agar pH 7.4): 7.5 µg/mL (≈ 25.6 µM); MIC (Salmonella; pH 7.4, C2 Cuban, Mueller Hinton Agar pH 7.4): 7.5 µg/mL (≈ 25.6 µM); MIC (Salmonella; pH 7.4, C2 Napc, Mueller Hinton Agar pH 7.4): 7.5 µg/mL (≈ 25.6 µM); MIC (Salmonella; pH 7.4, Salmonella ent. 1, Mueller Hinton Agar pH 7.4): 7.5 µg/mL (≈ 25.6 µM); MIC (Staphylococcus aureus; 209P, pH 7.4, strain 209P): 7.5 µg/mL (≈ 25.6 µM); MIC (Staphylococcus aureus; pH 7.4, strain 59N): 7.5 µg/mL (≈ 25.6 µM); MIC (Staphylococcus aureus; pH 7.4, strain Gray): 7.5 µg/mL (≈ 25.6 µM); MIC (Staphylococcus aureus; pH 7.4, strain Wood): 7.5 µg/mL (≈ 25.6 µM); MIC (Staphylococcus aureus; pH 7.4, strain Zeigler): 7.5 µg/mL (≈ 25.6 µM); MIC (Streptococcus pyogenes; pH 7.4, strain 27, Mueller Hinton Agar pH 7.4): 7.5 µg/mL (≈ 25.6 µM); MIC (Streptococcus pyogenes; pH 7.4, strain C, Mueller Hinton Agar pH 7.4): 17.5 µg/mL (≈ 59.8 µM); MIC (Streptococcus pyogenes; pH 7.4, strain Cruz, Mueller Hinton Agar pH 7.4): 3 µg/mL (≈ 10.2 µM); MIC (Candida albicans; strain 1, after 48 hours): 150 µg/mL (≈ 512 µM); MIC (Candida albicans; strain 2, after 48 hours): 75 µg/mL (≈ 256 µM); MIC (Candida albicans; strain 3, after 48 hours): 150 µg/mL (≈ 512 µM); MIC (Candida albicans; strain 4, after 48 hours): 75 µg/mL (≈ 256 µM); MIC (Candida albicans; strain 5, after 48 hours): 75 µg/mL (≈ 256 µM); MIC (Candida albicans; strain 6, after 48 hours): 150 µg/mL (≈ 512 µM); MIC (Candida albicans; strain 8, after 48 hours): 150 µg/mL (≈ 512 µM); MIC (Candida albicans; strain 9, after 48 hours): 75 µg/mL (≈ 256 µM); MIC (Candida albicans; strain 29, after 48 hours): 75 µg/mL (≈ 256 µM); MIC (Candida albicans; strain Atkisson, after 48 hours): 75 µg/mL (≈ 256 µM); MIC (Candida albicans; strain Bertrand, after 48 hours): 150 µg/mL (≈ 512 µM); MIC (Candida albicans; strain Bevan, after 48 hours): 150 µg/mL (≈ 512 µM); MIC (Candida albicans; strain Blunden, after 48 hours): 75 µg/mL (≈ 256 µM); MIC (Candida albicans; strain Bognay, after 48 hours): 75 µg/mL (≈ 256 µM); MIC (Candida albicans; strain Boyer, after 48 hours): 150 µg/mL (≈ 512 µM); MIC (Candida albicans; strain Burke, after 48 hours): 75 µg/mL (≈ 256 µM); MIC (Candida albicans; strain Burnside, after 48 hours): 150 µg/mL (≈ 512 µM); MIC (Candida albicans; strain Collins, after 48 hours): 75 µg/mL (≈ 256 µM); MIC (Candida albicans; strain Fix, after 48 hours): 75 µg/mL (≈ 256 µM); MIC (Candida albicans; strain Frazier, after 48 hours): 150 µg/mL (≈ 512 µM); MIC (Candida albicans; strain Fulcher, after 48 hours): 75 µg/mL (≈ 256 µM); MIC (Candida albicans; strain Gay, after 48 hours): 150 µg/mL (≈ 512 µM); MIC (Candida albicans; strain Hons, after 48 hours): 150 µg/mL (≈ 512 µM); MIC (Candida albicans; strain Johnson, after 48 hours): 150 µg/mL (≈ 512 µM); MIC (Candida albicans; strain Kenndy 2, after 48 hours): 150 µg/mL (≈ 512 µM); MIC (Candida albicans; strain Kennedy 1, after 48 hours): 75 µg/mL (≈ 256 µM); MIC (Candida albicans; strain Lehtman, after 48 hours): 150 µg/mL (≈ 512 µM); MIC (Candida albicans; strain Lusk, after 48 hours): 75 µg/mL (≈ 256 µM); MIC (Candida albicans; strain Merkel, after 48 hours): 75 µg/mL (≈ 256 µM); MIC (Candida albicans; strain Newcomb, after 48 hours): 37.5 µg/mL (≈ 128 µM); MIC (Candida albicans; strain Sherod, after 48 hours): 150 µg/mL (≈ 512 µM); MIC (Candida albicans; strain Shurelli, after 48 hours): 150 µg/mL (≈ 512 µM); MIC (Candida albicans; strain Sparks, after 48 hours): 150 µg/mL (≈ 512 µM); MIC (Candida albicans; strain Tyner, after 48 hours): 150 µg/mL (≈ 512 µM); MIC (Epidermophyton floccosum): 17.5 µg/mL (≈ 59.8 µM); MIC (Microsporum distortum): 17.5 µg/mL (≈ 59.8 µM); MIC (Microsporum nanum): 17.5 µg/mL (≈ 59.8 µM); MIC (Trichophyton ascoides): 17.5 µg/mL (≈ 59.8 µM); MIC (Trichophyton discoides): 17.5 µg/mL (≈ 59.8 µM); MIC (Trichophyton ferrugineum): 37.5 µg/mL (≈ 128 µM); MIC (Trichophyton gallinae): 7.5 µg/mL (≈ 25.6 µM); MIC ([1]; strain A, after 96 hours): 7.5 µg/mL (≈ 25.6 µM); MIC ([1]; strain B, after 96 hours): 7.5 µg/mL (≈ 25.6 µM); MIC ([1]; strain C, after 96 hours): 7.5 µg/mL (≈ 25.6 µM); MIC ([1]; strain H377, after 96 hours): 17.5 µg/mL (≈ 59.8 µM); MIC ([1]; strain Young, after 96 hours): 7.5 µg/mL (≈ 25.6 µM); MIC (Trichophyton rubrum; strain 3, after 96 hours): 17.5 µg/mL (≈ 59.8 µM); MIC (Trichophyton rubrum; strain 360, after 96 hours): 17.5 µg/mL (≈ 59.8 µM); MIC (Trichophyton rubrum; strain Blehl, after 96 hours): 17.5 µg/mL (≈ 59.8 µM); MIC (Trichophyton rubrum; strain Haggerty, after 96 hours): 17.5 µg/mL (≈ 59.8 µM); MIC (Trichophyton soudenense): 17.5 µg/mL (≈ 59.8 µM); MIC (Trichophyton tonsurans): 200 µg/mL (≈ 683 µM); MIC (Tricoderm sp.): 7.5 µg/mL (≈ 25.6 µM); Average No. of Days to become negative, Cultures (T. mentagrophytes; concentration 1%): 9.6 days; Average No. of Days to become negative, Lesion (T. mentagrophytes; concentration 1%): 14.2 days; Average Sum of lesion scores, Days 1-5 (T. mentagrophytes; concentration 1%): 11.6; Average Sum of lesion scores, Days 1-10 (T. mentagrophytes; concentration 1%): 20.0; Average No. of Days to become negative, Cultures (T. mentagrophytes; concentration 4%): 5.0 days; Average No. of Days to become negative, Lesion (T. mentagrophytes; concentration 4%): 7.2 days; Average Sum of lesion scores, Days 1-5 (T. mentagrophytes; concentration 4%): 9.2; Average Sum of lesion scores, Days 1-10 (T. mentagrophytes; concentration 4%): 10.0
